Results published in US20180171304A1, “CONTINUOUSLY BIOPRINTED MULTILAYER TISSUE STRUCTURE” (ASPECT BIOSYSTEMS LTD., priority 2015, published 2018).

Test system: muscle tube
Settings: tube cultured for 14 days; contraction gradual over a 40 minute time period; FIG. 2
Source text: In one embodiment, described herein are multi-layered tubes of muscle tissue. The tubes are created using a layer-by-layer deposition process by which muscle cells are dispersed within a solidified biocompatible matrix and bioprinted in a continuous fiber. In one embodiment, the fiber is deposited in a ring-like pattern to form a layer. These layers are stacked to form tubes, the height of which may be varied in a controlled way by changing the number of layers. Preferably, the matrix composition is physiologically compatible such that it allows the muscle cells to fully differentiate into a contractile phenotype. At the time of bioprinting, the tube is not contractile. […]
After bioprinting, the muscle structure must be submersed in cell culture media and placed in a cell culture incubator with temperature and carbon dioxide level control. […] In the preferred embodiment contraction and relaxation are measured by visual observation of changes in the diameter of the tube. […] Alternatively, a camera with an appropriate level of magnification could be positioned above the smooth muscle tube such that video footage of the tube from a top down perspective is recorded. […] The change in area, radius, diameter or circumference of the muscle tube may be quantified. […]

For `NCCc1c[nH]cn1` [histamine], the “contraction of muscle tube (smaller diameter in contracted state)” value was “initiate contraction”.
